Columns and labels:
[1] = tested on: Salmonella enteriditis 4444; test: Viable count of S. enteriditis in TSB with plant oils, benzoic acid, methyl paraben and combinations (Experimental Procedure 1); assay type: cell-based; conditions: for log10 of the mean count: 37° C.; for inhibition of S. enteriditis in words: over the 48 hr period
Experimental: (§1) Listeria monocytogenes 11994 and Salmonella […] 4444 were purchased from the National Collection Type Culture, Porton Down, Wiltshire, UK. Each was stored in the long term in glycerol at -20° C., in the medium term on Tryptone Soya Agar (TSA) slopes and in the short term on TSA plates. All agar and broth (Tryptone Soya Broth) was purchased from Oxoid-Unipath Limited, Basingstoke, UK. […] Plates were incubated at 37° C. and colonies counted as colony forming units per ml (cfu/ml). […] Oils of fennel and […] used at 0.2% and whilst oil of basil was originally used for comparative purposes at 0.2% it was later used at 0.02%. […] Several factors were considered when choosing these concentrations. […] Triplicate plates were prepared for each dilution and the mean count of three plates was determined. […] Each experiment was performed on three separate occasions. It is the mean count from three separate experiments and the corresponding standard error of the mean which are shown in the results section. Two-tailed paired student's t-test was used to analyse inhibition caused by a combination compared to the corresponding control. Differences were judged to be statistically significant when p<0.05.

[2] = tested on: Listeria monocytogenes 11994; test: Viable count of L. monocytogenes in TSB with plant oils, benzoic acid, methyl paraben and combinations (Experimental Procedure 1); assay type: cell-based; conditions: for log10 of the mean count: 37° C.; for inhibition of L. monocytogenes in words: over the 48 hr period
Experimental: as §1

[3] = tested on: Listeria monocytogenes 11994; test: Viable count of L. monocytogenes in TSB with trans-anethole, fenchone, estragole, methyl paraben and combinations (Experimental Procedure 2); assay type: cell-based; conditions: for log10 of the mean count ± 1 SEM: 37° C., preservatives at 0.1%; for inhibition of L. monocytogenes in words: 0.1%, over 48 hrs
Experimental: (§2) Listeria monocytogenes 11994 and Salmonella enteriditis 4444 were purchased from the National Collection Type Culture, Porton Down, Wiltshire, UK. Each was stored in the long term in glycerol at −20° C., in the medium term on Tryptone Soya Agar (TSA) slopes and in the short term on TSA plates. All agar and broth (Tryptone Soya Broth) was purchased from Oxoid-Unipath Limited, Basingstoke, UK.
(§3) Triplicate plates were prepared for each dilution and the mean count of three plates was determined. […] Each experiment was performed on three separate occasions.
(§4) Two-tailed paired student's t-test was used to analyse inhibition caused by a combination compared to the corresponding control. Differences were judged to be statistically significant when p<0.05.
(§5) This definition is also in agreement with Mims et al.
(§6) Corresponding controls were also prepared, thus 10 μl of each overnight culture was added to the appropriate broth only. All tubes were incubated at 37° C. 1 ml samples were removed from each test and control after vortexing at 0 hrs, 1 hr, 4 hrs, 8 hrs, 24 hrs and 48 hrs and serially diluted in 0.01M PBS. 100 μl from each dilution was placed on an agar plate and spread across the surface. Plates were incubated at 37° C. and colonies counted as colony forming units per ml (cfu/ml). As ethanol was used to prepare stock solutions of methyl paraben a diluent control was used where ethanol was added to each culture medium. […] Due to the limitation of the serial dilution technique it was not possible to count cfu less than 10/ml.
(§7) Furthermore to make valid comparison about the activity of each combination against each microbe it was necessary to use just one concentration of each component with the combination. […] In addition, methyl paraben cannot be used in food in excess of 0.1% [15].

mice = conditions: high doses, literature [22,23]; cited from earlier work
[4] = tested on: Salmonella enteriditis 4444; test: Viable count of S. enteriditis in TSB with trans-anethole, fenchone, estragole, methyl paraben and combinations (Experimental Procedure 2); assay type: cell-based; conditions: for inhibition of S. enteriditis in words: 0.1%, over the 48 hr period; for log10 of the mean count ± 1 SEM: 37° C., preservatives at 0.1%
Experimental: as §2, §3, §4, §5, §6, §7

[5] = literature [20,21]; cited from earlier work
[6] = 0 hrs (starting count, same as control)

Q: For `O=C(O)c1ccccc1` [BA, benzoic acid], which “log10 of the mean count” value [1, 6] is on record?
A: The value was 6.08 ± 0.03 log10 cfu/ml.

Q: And the “log10 of the mean count” value ([1]; 1 hr)?
A: The value was 6.02 ± 0.04 log10 cfu/ml.

Q: And the “log10 of the mean count” value ([1]; 4 hrs)?
A: Its value is 6.46 ± 0.01 log10 cfu/ml.

Q: What about the “log10 of the mean count” value ([1]; 8 hrs) of the same compound?
A: The value was 7.32 ± 0.08 log10 cfu/ml.

Q: And the “log10 of the mean count” value ([1]; 24 hrs)?
A: The value was 8.67 ± 0.14 log10 cfu/ml.

Q: What about the “log10 of the mean count” value ([1]; 48 hrs) of the same compound?
A: Its value is 8.52 ± 0.03 log10 cfu/ml.

Q: And the “inhibition of S. enteriditis in words” value [1]?
A: Its value is “little inhibition”.

Q: And the “log10 of the mean count” value [2, 6]?
A: The value was 6.45 ± 0.02 log10 cfu/ml.

Q: What about the “log10 of the mean count” value ([2]; 1 hr) of the same compound?
A: Its value is 6.33 ± 0.11 log10 cfu/ml.

Q: What about the “log10 of the mean count” value ([2]; 4 hrs) of the same compound?
A: Its value is 7.22 ± 0.04 log10 cfu/ml.

Q: And the “log10 of the mean count” value ([2]; 8 hrs)?
A: Its value is 8.16 ± 0.06 log10 cfu/ml.

Q: What about the “log10 of the mean count” value ([2]; 24 hrs) of the same compound?
A: The value was 9.09 ± 0.03 log10 cfu/ml.

Q: And the “log10 of the mean count” value ([2]; 48 hrs)?
A: Its value is 9.0 ± 0.06 log10 cfu/ml.

Q: What about the “inhibition of L. monocytogenes in words” value [2] of the same compound?
A: The value was “relatively weakly inhibitory”.

Q: Which results are given for `C=CCc1ccc(OC)cc1` [Estragole, estragole (4-allylanisole)]?
A: log10 of the mean count ± 1 SEM ([3]; 1 hr): 5.9 ± 0.05 log10 cfu/ml; log10 of the mean count ± 1 SEM ([3]; 4 hrs): 5.6 ± 0.07Δ log10 cfu/ml; log10 of the mean count ± 1 SEM ([3]; 8 hrs): 5.5 ± 0.06Δ log10 cfu/ml; log10 of the mean count ± 1 SEM ([3]; 24 hrs): 4.9 ± 0.08Δ log10 cfu/ml; log10 of the mean count ± 1 SEM ([3]; 48 hrs): 4.7 ± 0.09Δ log10 cfu/ml; inhibition of growth ([3]; after 24 hrs): more than 4 log10; carcinogenicity in words (mice): carcinogenic in high doses in mice; inhibition of S. enteriditis in words [4]: two most single inhibitory preservatives; log10 of the mean count ± 1 SEM ([4]; 1 hr): 2.2 ± 0.05Δ log10 cfu/ml; growth inhibited by ([4]; 4 hrs and 8 hrs): more than 5.0 log10; log10 of the mean count ± 1 SEM ([4]; 4 hrs): 1.6 ± 0.08Δ log10 cfu/ml; log10 of the mean count ± 1 SEM ([4]; 8 hrs): 1.5 ± 0.08Δ log10 cfu/ml; log10 of the mean count ± 1 SEM ([4]; 24 hrs): 4.3 ± 0.03Δ log10 cfu/ml; inhibition ([4]; 48 hrs): 2.1 log10; log10 of the mean count ± 1 SEM ([4]; 48 hrs): 6.9 ± 0.03Δ log10 cfu/ml

Q: What does the source list for `CC12CCC(C1)C(C)(C)C2=O` (stereo not shown) [Fenchone, fenchone]?
A: inhibition of L. monocytogenes in words [3]: most inhibitory single component; log10 of the mean count ± 1 SEM ([3]; 1 hr): 2.7 ± 0.2Δ log10 cfu/ml; log10 of the mean count ± 1 SEM ([3]; 4 hrs): 1.9 ± 0.08Δ log10 cfu/ml; count (cells undetectable) ([3]; 8 hrs and above): < 10 cfu/ml; log10 of the mean count ± 1 SEM ([3]; 8 hrs): <1.0Δ log10 cfu/ml; log10 of the mean count ± 1 SEM ([3]; 24 hrs): <0.1Δ log10 cfu/ml; log10 of the mean count ± 1 SEM ([3]; 48 hrs): <1.0Δ log10 cfu/ml; toxicity in words [5]: non-toxic; inhibition of S. enteriditis in words [4]: little or no inhibition; log10 of the mean count ± 1 SEM ([4]; 1 hr): 5.8 ± 0.02 log10 cfu/ml; log10 of the mean count ± 1 SEM ([4]; 4 hrs): 6.4 ± 0.04 log10 cfu/ml; log10 of the mean count ± 1 SEM ([4]; 8 hrs): 6.9 ± 0.04Δ log10 cfu/ml; log10 of the mean count ± 1 SEM ([4]; 24 hrs): 8.6 ± 0.09Δ log10 cfu/ml; log10 of the mean count ± 1 SEM ([4]; 48 hrs): 8.5 ± 0.01Δ log10 cfu/ml

Q: Which results are given for `COC(=O)c1ccc(O)cc1` [MP, methyl paraben]?
A: inhibition of L. monocytogenes in words [3]: little or no inhibitory properties; log10 of the mean count ± 1 SEM ([3]; 1 hr): 6.5 ± 0.01 log10 cfu/ml; log10 of the mean count ± 1 SEM ([3]; 4 hrs): 6.9 ± 0.01 log10 cfu/ml; log10 of the mean count ± 1 SEM ([3]; 8 hrs): 7.7 ± 0.01 log10 cfu/ml; log10 of the mean count ± 1 SEM ([3]; 24 hrs): 9.3 ± 0.01 log10 cfu/ml; log10 of the mean count ± 1 SEM ([3]; 48 hrs): 9.2 ± 0.01 log10 cfu/ml; log10 of the mean count [1, 6]: 6.08 ± 0.03 log10 cfu/ml; log10 of the mean count ([1]; 1 hr): 6.04 ± 0.05 log10 cfu/ml; log10 of the mean count ([1]; 4 hrs): 6.32 ± 0.03 log10 cfu/ml; log10 of the mean count ([1]; 8 hrs): 6.63 ± 0.03 log10 cfu/ml; log10 of the mean count ([1]; 24 hrs): 8.36 ± 0.05 log10 cfu/ml; log10 of the mean count ([1]; 48 hrs): 8.45 ± 0.11 log10 cfu/ml; inhibition of S. enteriditis in words [1]: little inhibition; inhibition of S. enteriditis in words [4]: little or no inhibition; log10 of the mean count ± 1 SEM ([4]; 1 hr): 6.0 ± 0.01 log10 cfu/ml; log10 of the mean count ± 1 SEM ([4]; 4 hrs): 6.3 ± 0.01 log10 cfu/ml; log10 of the mean count ± 1 SEM ([4]; 8 hrs): 6.6 ± 0.06Δ log10 cfu/ml; log10 of the mean count ± 1 SEM ([4]; 24 hrs): 8.5 ± 0.04Δ log10 cfu/ml; log10 of the mean count ± 1 SEM ([4]; 48 hrs): 8.6 ± 0.01Δ log10 cfu/ml; log10 of the mean count [2, 6]: 6.45 ± 0.02 log10 cfu/ml; log10 of the mean count ([2]; 1 hr): 6.49 ± 0.01 log10 cfu/ml; log10 of the mean count ([2]; 4 hrs): 7.02 ± 0.02 log10 cfu/ml; log10 of the mean count ([2]; 8 hrs): 7.86 ± 0.05 log10 cfu/ml; log10 of the mean count ([2]; 24 hrs): 9.27 ± 0.02 log10 cfu/ml; log10 of the mean count ([2]; 48 hrs): 9.24 ± 0.02 log10 cfu/ml; inhibition of L. monocytogenes in words [2]: relatively weakly inhibitory

Q: Which “inhibition of L. monocytogenes in words” value [3] does the source give for `C/C=C/c1ccc(OC)cc1` [Trans-anethole] here?
A: The value was “little or no inhibitory properties”.

Q: What about the “log10 of the mean count ± 1 SEM” value ([3]; 1 hr) of the same compound?
A: Its value is 6.1 ± 0.04 log10 cfu/ml.

Q: What about the “log10 of the mean count ± 1 SEM” value ([3]; 4 hrs) of the same compound?
A: Its value is 6.3 ± 0.1 log10 cfu/ml.

Q: What about the “log10 of the mean count ± 1 SEM” value ([3]; 8 hrs) of the same compound?
A: Its value is 6.7 ± 0.2 log10 cfu/ml.

Q: And the “log10 of the mean count ± 1 SEM” value ([3]; 24 hrs)?
A: Its value is 9.0 ± 0.1 log10 cfu/ml.

Q: And the “log10 of the mean count ± 1 SEM” value ([3]; 48 hrs)?
A: The value was 9.0 ± 0.01 log10 cfu/ml.

Q: What about the toxicity in words [5] of the same compound?
A: The toxicity in words was “non-toxic”.
